Measured values as given in patent US7294715B2, “Aporphine and oxoaporphine compounds and pharmaceutical use thereof” (Lotus Pharmaceutical Co., Ltd., priority 2003, dated 2007).
Marks after values point to notes of the source that are not given here.

Tests used:
[1] = test system: eNOS; experiment: Western blot analysis for eNOS protein in ischemia-reperfusion rat heart; type: in vivo; conditions: ischemia 25 min, reperfusion 2 h, 1.5 mg/kg at 5 min prior to reperfusion, P<0.05 vs vehicle
Description: To elucidate the effects of the test compounds on the infarct size caused by regional myocardial ischemia and reperfusion, all animals were randomized into 8 study groups. The first group (Sham) comprised of animals not subjected to regional myocardial ischemia (25 min) followed by reperfusion (2 h) and treated with vehicle (1 ml/kg) 5 minutes prior to the onset of reperfusion. The second group of animals were subjected to regional myocardial ischemia (25 min) followed by reperfusion (2 h) and were treated with vehicle (saline, 1 ml/kg). […]
Hearts were pulverized at −80° C. using liquid nitrogen and a stainless steel pestle and mortar. […] Total protein concentrations were determined using the Bradford method (Bio-Rad, UK). […] Signals were detected using the enhanced chemiluminescence (ECL™) detection system (Cell Signaling Technology, U.S.A.) and autoradiographic film. For quantification of protein expression all blots were reprobed for muscle α-actin expression using 1/2000 dilution of a mouse anti-human actin (muscle antibody (Serotec), followed by incubation with a goat anti-mouse HRP linked secondary antibody ( 1/2000 dilution) (DakoCytomation, Denmark). Densitometry analysis was performed on scanned images (Hewlett Packard Scanjet) and analyzed using Scion Image (Scion Corp, National Institutes of Health, Bethesda, Md.).

[2] = test system: reperfusion induced arrhythmia in rats; experiment: Reperfusion induced arrhythmia in rats; type: in vivo, rat; conditions: for Ventricular tachycardia Duration: vehicle 46.6 ± 17.5; for Ventricular tachycardia Incident (%): vehicle 100; for Ventricular fibrillation Duration: vehicle 124.2 ± 25.9
Description: Opened-chest SD (Sprague-Dawley) anesthetized rats underwent myocardial ischemia by 5 min-occlusion of the left main coronary artery and followed by 30 min-reperfusion. During the myocardium reperfusion period, heart rate, blood pressure and EKG changes were recorded. Ventricular ectopic activity was evaluated according to the diagnostic criteria advocated by the Lambeth Convention. The incidences and durations of ventricular tachycardia and ventricular fibrillation were determined.

[3] = Hemodynamic effects (blood pressure, heart rate) in rats; type: in vivo, rat
[4] = iv infusion 0.5 ug/kg, vehicle 80
[5] = iv infusion 5 ug/kg, vehicle 80

## COc1cc2c(cc1OC)-c1c(OC)c(OC)cc3c1C(C2)N(CCOc1ccccc1OC)CC3 (centres unmarked) [Compound 16, N-[2-(2-methoxyphenoxyl)]ethylnorglaucine]
[1]
  reduction in eNOS protein expression caused by ischemia and reperfusion: significantly reduced
[2]; iv infusion 0.5 ug/kg
  Ventricular tachycardia Duration: 23.3 ± 4.8 s
  Ventricular tachycardia Incident (%): 92%
  Ventricular fibrillation Duration: 111.5 ± 24.4 s
[2]; [4]
  Mortality (%): 62%
  Ventricular fibrillation Incident (%): 85%
[2]; iv infusion 5 ug/kg
  Ventricular tachycardia Duration: 27.9 ± 7.9 s
  Ventricular tachycardia Incident (%): 91%
  Ventricular fibrillation Duration: 72.2 ± 22.9 s
[2]; [5]
  Mortality (%): 46%
  Ventricular fibrillation Incident (%): 82%
[2]; iv infusion 50 ug/kg
  Ventricular tachycardia Duration: 9.8 ± 8.8 s
  Ventricular tachycardia Incident (%): 85%
  Ventricular fibrillation Duration: 42.3 ± 18.6 s
[2]; iv infusion 50 ug/kg, vehicle 80
  Ventricular fibrillation Incident (%): 54%
[2]; iv infusion 50 ug/kg, vehicle 80, p < 0.05 vs vehicle
  Mortality (%): 23* %
[3]
  duration of blood pressure decrease: about 45 minutes
[3]; 0.5 mg/kg to 50 mg/kg, FIG. 5A
  effects on blood pressure: no significant effects
[3]; 0.5 mg/kg to 50 mg/kg, FIG. 5B
  effects on heart rate: no significant effects
[3]; 50 mg/kg
  time to recovery of heart rates after drug application: 45 min
[3]; 50 mg/kg, from 361.5±9.3 bpm, p<0.05
  heart rates after drug: 295.4±16.8 bpm
[3]; 50 mg/kg, p<0.05
  heart rates, % of baseline values: 81.5±2.8 % of baseline values
[3]; at 3 minutes after drug administration, from 74.6±5.7 mmHg
  mean blood pressure after drug: 62.9±2.2 mmHg
